Tested on: rat retinal photoreceptor
Test: Electroretinogram of rats treated with different MNU dosages
Conditions: for Number of Eyes with extinguished electroretinogram: n = 10

**Q.** How did the “initial dosage that could cause maximum decrease of a-wave and b-wave amplitudes of electroretinogram” value turn out when CN(N=O)C(N)=O [MNU, N-methyl-N-nitrosourea] was run?
**A.** Its value is 40 mg/kg.

**Q.** What about the “lowest dosage which could shorten the a-wave and b-wave latent period of rats electroretinogram to the greatest extent” value of the same molecule?
**A.** The value was 40 mg/kg.

**Q.** What about the “a-wave amplitude of electroretinogram” value (MNU 30 mg/kg, 12 h) of the same molecule?
**A.** Its value is 42.24 ± 7.71.

**Q.** What about the “a-wave latent period of electroretinogram” value (“a-wave latent period” for short) (MNU 30 mg/kg, 12 h) of the same molecule?
**A.** Its value is 17.97 ± 2.50.

**Q.** And the “b-wave amplitude of electroretinogram” value (MNU 30 mg/kg, 12 h)?
**A.** The value was 195.8 ± 33.45.

**Q.** And the “b-wave latent period of electroretinogram” value (MNU 30 mg/kg, 12 h)?
**A.** Its value is 73.7 ± 6.94.

**Q.** And the “Number of Eyes with extinguished electroretinogram” value (“Number of Eyes” for short) (MNU 30 mg/kg, 12 h)?
**A.** Its value is 0.

**Q.** What about the “a-wave amplitude of electroretinogram” value (MNU 30 mg/kg, 1 d) of the same molecule?
**A.** The value was 34.10 ± 6.35.

**Q.** What about the “a-wave latent period” value (MNU 30 mg/kg, 1 d) of the same molecule?
**A.** Its value is 17.82 ± 2.59.

**Q.** What about the “b-wave amplitude of electroretinogram” value (MNU 30 mg/kg, 1 d) of the same molecule?
**A.** Its value is 153.6 ± 28.76.

**Q.** What about the “b-wave latent period of electroretinogram” value (MNU 30 mg/kg, 1 d) of the same molecule?
**A.** Its value is 70.41 ± 6.11.

**Q.** What about the “Number of Eyes” value (MNU 30 mg/kg, 1 d) of the same molecule?
**A.** The value was 0.

**Q.** And the “a-wave amplitude of electroretinogram” value (MNU 30 mg/kg, 3 d)?
**A.** The value was 33.14 ± 9.15.

**Q.** What about the “a-wave latent period” value (MNU 30 mg/kg, 3 d) of the same molecule?
**A.** The value was 17.44 ± 2.40.

**Q.** What about the “b-wave amplitude of electroretinogram” value (MNU 30 mg/kg, 3 d) of the same molecule?
**A.** Its value is 132.0 ± 24.85.

**Q.** And the “b-wave latent period of electroretinogram” value (MNU 30 mg/kg, 3 d)?
**A.** Its value is 67.42 ± 7.05.

**Q.** And the “Number of Eyes” value (MNU 30 mg/kg, 3 d)?
**A.** The value was 0.

**Q.** And the “a-wave amplitude of electroretinogram” value (MNU 30 mg/kg, 7 d)?
**A.** The value was 41.11 ± 10.14.

**Q.** What about the “a-wave latent period” value (MNU 30 mg/kg, 7 d) of the same molecule?
**A.** The value was 17.66 ± 2.55.

**Q.** And the “b-wave amplitude of electroretinogram” value (MNU 30 mg/kg, 7 d)?
**A.** The value was 156.5 ± 34.85.

**Q.** What about the “b-wave latent period of electroretinogram” value (MNU 30 mg/kg, 7 d) of the same molecule?
**A.** The value was 70.28 ± 6.02.

**Q.** And the “Number of Eyes” value (MNU 30 mg/kg, 7 d)?
**A.** The value was 0.

**Q.** What about the “a-wave amplitude of electroretinogram” value (MNU 30 mg/kg, 10 d) of the same molecule?
**A.** Its value is 44.17 ± 11.13.

**Q.** And the “a-wave latent period” value (MNU 30 mg/kg, 10 d)?
**A.** The value was 17.30 ± 2.24.

**Q.** And the “b-wave amplitude of electroretinogram” value (MNU 30 mg/kg, 10 d)?
**A.** Its value is 188.7 ± 27.7.

**Q.** What about the “b-wave latent period of electroretinogram” value (MNU 30 mg/kg, 10 d) of the same molecule?
**A.** Its value is 70.31 ± 7.29.

**Q.** And the “Number of Eyes” value (MNU 30 mg/kg, 10 d)?
**A.** The value was 0.

**Q.** And the “a-wave amplitude of electroretinogram” value (MNU 35 mg/kg, 12 h)?
**A.** The value was 40.34 ± 8.37.

**Q.** What about the “a-wave latent period” value (MNU 35 mg/kg, 12 h) of the same molecule?
**A.** Its value is 17.32 ± 5.87.

**Q.** And the “b-wave amplitude of electroretinogram” value (MNU 35 mg/kg, 12 h)?
**A.** The value was 185.3 ± 23.41.

**Q.** And the “b-wave latent period of electroretinogram” value (MNU 35 mg/kg, 12 h)?
**A.** Its value is 73.61 ± 6.37.

**Q.** And the “Number of Eyes” value (MNU 35 mg/kg, 12 h)?
**A.** Its value is 0.

**Q.** What about the “a-wave amplitude of electroretinogram” value (MNU 35 mg/kg, 1 d) of the same molecule?
**A.** Its value is 33.20 ± 12.11.

**Q.** What about the “a-wave latent period” value (MNU 35 mg/kg, 1 d) of the same molecule?
**A.** The value was 16.98 ± 2.46.

**Q.** And the “b-wave amplitude of electroretinogram” value (MNU 35 mg/kg, 1 d)?
**A.** The value was 107.52 ± 17.38.

**Q.** What about the “b-wave latent period of electroretinogram” value (MNU 35 mg/kg, 1 d) of the same molecule?
**A.** Its value is 73.12 ± 6.69.

**Q.** And the “Number of Eyes” value (MNU 35 mg/kg, 1 d)?
**A.** The value was 0.

**Q.** What about the “a-wave amplitude of electroretinogram” value (MNU 35 mg/kg, 3 d) of the same molecule?
**A.** Its value is 30.38 ± 9.61.

**Q.** And the “a-wave latent period” value (MNU 35 mg/kg, 3 d)?
**A.** Its value is 16.83 ± 2.62.

**Q.** What about the “b-wave amplitude of electroretinogram” value (MNU 35 mg/kg, 3 d) of the same molecule?
**A.** The value was 104.88 ± 21.83.

**Q.** And the “b-wave latent period of electroretinogram” value (MNU 35 mg/kg, 3 d)?
**A.** Its value is 68.15 ± 6.68.

**Q.** And the “Number of Eyes” value (MNU 35 mg/kg, 3 d)?
**A.** The value was 0.

**Q.** And the “a-wave amplitude of electroretinogram” value (MNU 35 mg/kg, 7 d)?
**A.** Its value is 36.75 ± 7.28.

**Q.** And the “a-wave latent period” value (MNU 35 mg/kg, 7 d)?
**A.** The value was 17.77 ± 2.25.

**Q.** What about the “b-wave amplitude of electroretinogram” value (MNU 35 mg/kg, 7 d) of the same molecule?
**A.** Its value is 135.44 ± 22.58.

**Q.** And the “b-wave latent period of electroretinogram” value (MNU 35 mg/kg, 7 d)?
**A.** Its value is 73.37 ± 7.73.

**Q.** What about the “Number of Eyes” value (MNU 35 mg/kg, 7 d) of the same molecule?
**A.** The value was 0.

**Q.** What about the “a-wave amplitude of electroretinogram” value (MNU 35 mg/kg, 10 d) of the same molecule?
**A.** The value was 40.76 ± 8.92.

**Q.** What about the “a-wave latent period” value (MNU 35 mg/kg, 10 d) of the same molecule?
**A.** Its value is 17.46 ± 2.41.

**Q.** What about the “b-wave amplitude of electroretinogram” value (MNU 35 mg/kg, 10 d) of the same molecule?
**A.** Its value is 168.7 ± 32.14.

**Q.** What about the “b-wave latent period of electroretinogram” value (MNU 35 mg/kg, 10 d) of the same molecule?
**A.** Its value is 73.51 ± 5.61.

**Q.** And the “Number of Eyes” value (MNU 35 mg/kg, 10 d)?
**A.** The value was 0.

**Q.** And the “a-wave amplitude of electroretinogram” value (MNU 40 mg/kg, 12 h)?
**A.** Its value is 17.18 ± 15.90.

**Q.** And the “a-wave latent period” value (MNU 40 mg/kg, 12 h)?
**A.** Its value is 10.53 ± 9.18.

**Q.** What about the “b-wave amplitude of electroretinogram” value (MNU 40 mg/kg, 12 h) of the same molecule?
**A.** The value was 54.40 ± 46.33.

**Q.** What about the “b-wave latent period of electroretinogram” value (MNU 40 mg/kg, 12 h) of the same molecule?
**A.** The value was 41.09 ± 35.82.

**Q.** What about the “Number of Eyes” value (MNU 40 mg/kg, 12 h) of the same molecule?
**A.** The value was 4.

**Q.** What about the “a-wave amplitude of electroretinogram” value (MNU 40 mg/kg, 1 d) of the same molecule?
**A.** Its value is 9.44 ± 12.38.

**Q.** What about the “a-wave latent period” value (MNU 40 mg/kg, 1 d) of the same molecule?
**A.** Its value is 7.02 ± 9.15.

**Q.** And the “b-wave amplitude of electroretinogram” value (MNU 40 mg/kg, 1 d)?
**A.** Its value is 23.09 ± 30.15.

**Q.** And the “b-wave latent period of electroretinogram” value (MNU 40 mg/kg, 1 d)?
**A.** The value was 27.85 ± 36.29.

**Q.** What about the “Number of Eyes” value (MNU 40 mg/kg, 1 d) of the same molecule?
**A.** The value was 6.

**Q.** What about the “a-wave amplitude of electroretinogram” value (MNU 40 mg/kg, 3 d) of the same molecule?
**A.** The value was 3.62 ± 7.66.

**Q.** What about the “a-wave latent period” value (MNU 40 mg/kg, 3 d) of the same molecule?
**A.** Its value is 3.17 ± 6.69.

**Q.** What about the “b-wave amplitude of electroretinogram” value (MNU 40 mg/kg, 3 d) of the same molecule?
**A.** Its value is 12.23 ± 26.02.

**Q.** What about the “b-wave latent period of electroretinogram” value (MNU 40 mg/kg, 3 d) of the same molecule?
**A.** Its value is 12.20 ± 4.24.

**Q.** And the “Number of Eyes” value (MNU 40 mg/kg, 3 d)?
**A.** The value was 8.

**Q.** What about the “a-wave amplitude of electroretinogram” value (MNU 40 mg/kg, 7 d) of the same molecule?
**A.** Its value is 4.23 ± 9.27.

**Q.** What about the “a-wave latent period” value (MNU 40 mg/kg, 7 d) of the same molecule?
**A.** The value was 3.37 ± 7.15.

**Q.** And the “b-wave amplitude of electroretinogram” value (MNU 40 mg/kg, 7 d)?
**A.** The value was 13.14 ± 27.85.

**Q.** What about the “b-wave latent period of electroretinogram” value (MNU 40 mg/kg, 7 d) of the same molecule?
**A.** Its value is 12.33 ± 26.05.

From US20090022757A1, “Method for treating photoreceptor cell degeneration” (priority 2007, published 2009)
